# Source: patent US20250382346A1, “NEURONAL PROMOTERS AND USES THEREOF” (priority 2023, published 2025)
# Molecular target: T1, rM3Ds (Rattus norvegicus, UniProt P08483, A177S/A238G/A489L/DEL261-437/DEL441-478/E258S/I253V/I483M/INS256[…]/K178L/K182A/K255R/K484R/K486H/L173F/L482A/M480V/R171S/R176Q/R179M/S481M/T174R/T181R/T257A/Y148C)
# T1 sequence (P08483 with tags, fused parts or gaps Y148C/R171S/L173F/T174R/R176Q/A177S/K178L/R179M/T181R/K182A/A238G/I253V/K255R/INS256[…]/T257A/E258S/DEL261-437/DEL441-478/M480V/S481M/L482A/I483M/K484R/K486H/A489L): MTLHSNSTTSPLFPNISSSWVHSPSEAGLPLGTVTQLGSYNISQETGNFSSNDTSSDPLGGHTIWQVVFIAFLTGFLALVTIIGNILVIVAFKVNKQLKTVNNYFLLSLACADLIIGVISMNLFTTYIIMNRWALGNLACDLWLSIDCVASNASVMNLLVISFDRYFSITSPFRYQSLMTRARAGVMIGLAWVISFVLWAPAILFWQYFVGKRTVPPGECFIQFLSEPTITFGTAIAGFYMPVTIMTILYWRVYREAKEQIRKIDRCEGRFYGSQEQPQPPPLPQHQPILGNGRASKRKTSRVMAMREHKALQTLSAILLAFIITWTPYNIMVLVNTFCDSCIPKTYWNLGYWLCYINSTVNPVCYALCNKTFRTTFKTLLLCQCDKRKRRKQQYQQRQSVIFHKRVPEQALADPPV
# Assay: 6-OHDA parkinsonian mouse model: open field and rotarod
# Assay type: in vivo
# Design: 2A-EYFP (C); expressed in transfected cells; host or cells: neurons (striatal D1-MSNs) of mice or cynomolgus macaques, transduced in vivo by nigral AAV8R12-G88P7-rM3Ds-2A-EYFP
# Settings: AAV8R12-G88P7-rM3Ds-2A-EYFP, 6-OHDA mice
# Method: Rodent Parkinson's disease mice models were created through bilateral injection of 6-OHDA using the same methods as described in virus injections (Example 3). A total volume of 1 ul 6-OHDA (5 mg/ml, dissolved in sterile saline containing 0.02% ascorbic acid, Sigma) was injected into the striatum at a speed of 100 nL/min. The coordinates for striatum were 0.5 mm anterior, 1.5 mm lateral, 3.2 mm ventral to the bregma. A premedication of desipramine (25 mg/kg, Sigma) was administered to animals prior to injections of 6-OHDA, in order to increase the selectivity and efficacy of 6-OHDA-induced lesions. Mice were supplemented with DietGel (ClearH2O) for one-week post-surgery. All staining and behavioral experiments were performed at least 14 days following surgery, when the amount of dopamine depletion was maximal and stable.
# To investigate the efficacy and safety of D1-MSN specific neuromodulation strategy, AAV8R12-G88P7-rM3Ds-2A-EYFP was injected into the SNr of adult C57/BL6 mice. 6-OHDA was administered bilaterally into the striatum (FIG. 13A). […]
# Mice were individually handled for 10-20 seconds per day for at least 5 days to habituate them to the experimenter. […] The behavioral data were analyzed with ANY-maze software (Stoelting Co.).
# Mice were individually handled as described in the open field test. […] Latency to fall for each trial was automatically recorded by the apparatus. […]
smiles,measurement,setting,value
"C[N+]1([O-])CCN(C2=Nc3cc(Cl)ccc3Nc3ccccc32)CC1 [CNO, Clozapine-N-oxide]","motor skill, rotarod test",CNO,partially rescued the motor skill deficit
same,spontaneous movement in an open field,systemic CNO,drastically reversed the dyskinesia-like phenotype of PD mice
